The target of one assay is T1, V600E mutant B-RAF (Homo sapiens, UniProt P15056, V600E).
T1 construct: purchased Upstate
In words: V600E Mutant B-RAF 33P Assay. The class given is biochemical. Here is the method:
Substrate (HIS-MEK1 K97M) is prepared by Celgene Corp. as described above.
Test compound is diluted in 100% DMSO (600 μM). […] Substrate mixture is prepared as 7.5 μM HIS-MEK1 K97M in assay buffer. ATP mixture is prepared as 300 μM ATP, 75 mM MgCl2, 0.05 μCi/μl ^33P ATP in assay buffer.
In a 96 well assay plate (Falcon Polylpropylene well U-bottom), the following are added to each well: 2.5 μl of test compound solution (serial dilutions), 20 μl of substrate mixture and 17.5 μl of enzyme mixture. The plate is incubated for at least 15 minutes. 10 μl of ATP mixture is added and the plate is incubated at room temperature for about 60 minutes. 80 μl of 12.5% TCA is added to each well, and the plate is incubated for at least 20 minutes. The contents of the plate is transferred to a glass fiber filter plate (Millipore) using a Packard Harvester (washing 10× with 1×PBS). 50 μl of Scintillation-20 fluid is added to each well. The plate is read using a Packard TopCount.

Another assay deals with A375 cells. In words: Alamar Blue Viability Assay. Particulars: 3 days. The class given is cell-based. How it is done:
A375 cells (ATCC # CRL-1619; Passage 4˜15; doubling time is roughly 18 hours) are used. Culture medium is DMEM (high glucose, with L-glutamine)+10% FBS+Pen/Strep. Cells are passed every three days at 1:20.
200 μl of medium only is added into all wells along the edges of a 96-well flat bottom plate and 180 μl of cell suspension (containing 1,000 cells) per well is added into the plate with a Low Evaporation Lid (Costar Cat # 3595). The cells are cultured overnight. Compounds and controls are diluted according to standard compound dilution protocol described below. From 30 mM stock solution, 10 mM, 3 mM, 1 mM, and 0.3 mM solutions in 100% DMSO are prepared using the following serial dilution protocol:
The 30, 10, 3, 1 and 0.3 mM solutions are diluted 1:50 (DMSO:medium) by adding 4 μl of each to 196 μl of culture medium. This yields 600 μM, 200 μM, 60 μM, 20 μM, and 6 μM secondary stock solutions. 4 μl of DMSO are added to 196 μl medium for the DMSO control as well. 20 μl of compound dilutions, including the DMSO control locations (Row G, Columns 2-10 are DMSO control wells), are added in triplicate to the cells in the 96-well plate using a repeat pipettor (see plate layout below). This yields final concentrations of 60 μM, 20 μM, 6 μM, 2 μM, and 0.6 μM containing 0.2% DMSO in each well. The plate is gently tapped to evenly distribute compound within the well. The plate is incubated at 5% CO2 at 37° C. for 3 days.
20 μl of Alamar Blue (Biosource #DAL-1100) is added to each well. The plate is incubated in 5% CO2 incubator for 4 hours. Fluorescence is measured with excitation wavelength at 530 nm and emission wavelength at 590 nm using a Victor 2 multilabel plate reader (Perkin Elmer). Data is saved with plate format as a Text file and entered into ActivityBase (Cell-based SAR; Prolif-Alamar; MTT 5 plates unfixed fit) to calculate the percent of DMSO values for each compound set of triplicate wells and IC50 curves are plotted.
A general note: The colour change of resazurin is a common sign of viable cells or microbes.

The structures appear in SMILES notation.

T1 sequence (P15056 whole entry V600E): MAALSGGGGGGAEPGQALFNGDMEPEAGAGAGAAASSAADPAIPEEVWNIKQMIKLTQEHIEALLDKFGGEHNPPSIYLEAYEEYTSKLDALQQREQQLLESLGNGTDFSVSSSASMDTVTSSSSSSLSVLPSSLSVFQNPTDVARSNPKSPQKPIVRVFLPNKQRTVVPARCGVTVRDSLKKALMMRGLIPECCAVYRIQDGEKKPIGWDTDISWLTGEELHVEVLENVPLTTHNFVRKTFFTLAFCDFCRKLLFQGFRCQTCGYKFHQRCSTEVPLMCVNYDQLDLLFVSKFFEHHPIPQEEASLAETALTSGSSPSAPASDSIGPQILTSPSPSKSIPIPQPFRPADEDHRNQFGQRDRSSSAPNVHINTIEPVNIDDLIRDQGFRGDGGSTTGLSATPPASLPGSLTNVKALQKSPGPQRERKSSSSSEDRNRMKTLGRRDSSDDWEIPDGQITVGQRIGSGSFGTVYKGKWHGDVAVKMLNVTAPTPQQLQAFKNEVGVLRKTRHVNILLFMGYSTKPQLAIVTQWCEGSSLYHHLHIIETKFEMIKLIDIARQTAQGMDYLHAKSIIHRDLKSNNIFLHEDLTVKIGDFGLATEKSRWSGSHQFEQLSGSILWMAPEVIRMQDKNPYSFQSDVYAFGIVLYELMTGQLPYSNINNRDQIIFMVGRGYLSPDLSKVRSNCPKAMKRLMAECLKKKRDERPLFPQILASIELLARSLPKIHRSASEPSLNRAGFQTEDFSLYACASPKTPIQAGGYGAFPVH

Take `NC(=O)c1sc2nc(NC3CC3)nc(-c3ccc(OCc4ccccc4)nc3)c2c1N` [Example 168]: the IC50 (usually the concentration needed to halve the response being measured) is 0.1 to 10 µM on V600E mutant B-RAF and 20 to 30 µM in the assay with A375 cells (Homo sapiens, A-375, 72 h).
As to `NC(=O)c1sc2nc(NC3CC3)nc(-c3ccc(O)nc3)c2c1N` [Example 170], the IC50 at V600E mutant B-RAF is 30 to 60 µM; with A375 cells (Homo sapiens, A-375, 72 h), over 60 µM.
For the compound `COc1cncc(-c2nc(N[C@@H](C)CO)nc3sc(C(N)=O)c(N)c23)c1` [Example 177], in the assay on A375 cells (Homo sapiens, A-375, 72 h), the 50% inhibitory concentration (IC50) was 10 to 20 µM.
For `CCc1cncc(-c2nc(NC(C)(C)CO)nc3sc(C(N)=O)c(N)c23)c1` [Example 178], the IC50 was 0.1 to 10 µM on V600E mutant B-RAF and 10 to 20 µM with A375 cells (Homo sapiens, A-375, 72 h).
For the compound `CC(C)(CO)Nc1nc(-c2cncc(OCc3ccccc3)c2)c2c(N)c(C(N)=O)sc2n1` [Example 179], the IC50 against V600E mutant B-RAF fell in the range of 30 to 60 µM; in the assay with A375 cells (Homo sapiens, A-375, 72 h), 10 to 20 µM.
The corresponding values for `CC(C)(CO)Nc1nc(-c2cncc(O)c2)c2c(N)c(C(N)=O)sc2n1` [Example 180] are 0.1 to 10 µM and 10 to 20 µM.
The corresponding values for `NC(=O)c1sc2nc(NC3CC3)nc(-c3ccccc3OCc3ccccc3)c2c1N` [Example 182] are 30 to 60 µM and 30 to 60 µM.
The corresponding values for `NC(=O)c1sc2nc(NC3CC3)nc(-c3ccccc3O)c2c1N` [Example 183] are 0.1 to 10 µM and 30 to 60 µM.
As for `COc1cccc(-c2nc(N)nc3sc(C(N)=O)c(N)c23)c1` [Example 184], the IC50 lay in the range of 0.1 to 10 µM against V600E mutant B-RAF and 20 to 30 µM in the assay with A375 cells (Homo sapiens, A-375, 72 h).
For `NC(=O)c1sc2nc(NC3CC3)nc(-c3ccccc3F)c2c1N` [Example 186], in that order: 0.1 to 10 µM and 20 to 30 µM.
For `NC(=O)c1sc2nc(NC3CC3)nc(-c3c(F)cccc3F)c2c1N` [Example 187], in that order: 0.1 to 10 µM and 20 to 30 µM.
Take `NC(=O)c1nc(-c2ccc(Cl)c(Cl)c2)c2c(N)c(C(N)=O)sc2n1` [Example 193]: the IC50 was in the range of 0.1 to 10 µM against V600E mutant B-RAF and 20 to 30 µM in the assay with A375 cells.
`CC(C)[C@H](CO)Nc1nc(-c2ccc(Cl)c(Cl)c2)c2c(N)c(C(N)=O)sc2n1` [Example 198]: the 50% inhibitory concentration (IC50) lay in the range of 0.1 to 10 µM against V600E mutant B-RAF and 10 to 20 µM with A375 cells.
Take `CC(C)(C)Nc1nc(-c2ccc(Cl)c(Cl)c2)c2c(N)c(C(N)=O)sc2n1` [Example 209]: the IC50 on V600E mutant B-RAF fell in the range of 0.1 to 10 µM; in the assay with A375 cells (Homo sapiens, A-375, 72 h), 10 to 20 µM.
For `C[C@@H](CO)Oc1nc(-c2ccc(Cl)c(Cl)c2)c2c(N)c(C(N)=O)sc2n1` [Example 211], the IC50 in the assay on A375 cells (Homo sapiens, A-375, 72 h) fell in the range of 10 to 20 µM.
For the compound `C[C@H](O)[C@H](C)Oc1nc(-c2ccc(Cl)c(Cl)c2)c2c(N)c(C(N)=O)sc2n1` [Example 213], the IC50 against V600E mutant B-RAF was 0.1 to 10 µM; with A375 cells (Homo sapiens, A-375, 72 h), over 60 µM.
For `CC(C)(O)CNc1nc(-c2ccc(Cl)c(Cl)c2)c2c(N)c(C(N)=O)sc2n1` [Example 215], in that order: 0.1 to 10 µM and 10 to 20 µM.
The corresponding values for `CC(C)(CN1CCCC1)Nc1nc(-c2ccc(Cl)c(Cl)c2)c2c(N)c(C(N)=O)sc2n1` [Example 216] are 0.1 to 10 µM and 10 to 20 µM.
For the compound `CC(O)CCNc1nc(-c2ccc(Cl)c(Cl)c2)c2c(N)c(C(N)=O)sc2n1` (stereo not drawn) [Example 221], the IC50 fell in the range of 0.1 to 10 µM on V600E mutant B-RAF and 10 to 20 µM in the assay on A375 cells (Homo sapiens, A-375, 72 h).
On to `CCCCNc1nc(-c2ccc(Cl)c(Cl)c2)c2c(N)c(C(N)=O)sc2n1` [Example 223], for which the IC50 at V600E mutant B-RAF lay in the range of 0.1 to 10 µM.
With `NC(=O)c1sc2nc(NC3CNC3)nc(-c3ccc(Cl)c(Cl)c3)c2c1N` [Example 227], the IC50 fell in the range of 0.1 to 10 µM on V600E mutant B-RAF and 0.1 to 10 µM in the assay with A375 cells (Homo sapiens, A-375, 72 h).
With `NC(=O)c1sc2nc(N[C@@H]3CCOC3)nc(-c3ccc(Cl)c(Cl)c3)c2c1N` [Example 229], the half-inhibitory concentration (IC50) fell in the range of 0.1 to 10 µM at V600E mutant B-RAF and 10 to 20 µM in the assay on A375 cells (Homo sapiens, A-375, 72 h).
The corresponding values for `COc1cc(-c2nc(NC3CC3)nc3sc(C(N)=O)c(N)c23)ccc1C(F)(F)F` [Example 233] are 0.1 to 10 µM and 10 to 20 µM.
As to `NC(=O)c1sc2nc(NC3CC3)nc(-c3ccc(C(F)(F)F)cc3)c2c1N` [Example 235], the IC50 against V600E mutant B-RAF is 0.1 to 10 µM; with A375 cells (Homo sapiens, A-375, 72 h), 20 to 30 µM.

The values are drawn from patent publication US20080004271A1, “Inhibitors of TNFalpha, PDE4 and B-RAF, compositions thereof and methods of use therewith” (priority 2006, published 2008).
